Test results: BindingDB's records for doi:10.1021/jm020384z (Aventis Pharmaceuticals, 2003)

How the values were obtained:
Prothrombin = Prothrombin (Homo sapiens, UniProt P00734); experiment: Binding affinity towards thrombin
Coagulation factor X = Coagulation factor X (Homo sapiens, UniProt P00742); experiment: In vitro binding affinity for human Coagulation factor X
Serine protease 1 = Serine protease 1 (Homo sapiens, UniProt P07477); experiment: Binding affinity towards trypsin
Sequence of Serine protease 1 (P07477 whole entry): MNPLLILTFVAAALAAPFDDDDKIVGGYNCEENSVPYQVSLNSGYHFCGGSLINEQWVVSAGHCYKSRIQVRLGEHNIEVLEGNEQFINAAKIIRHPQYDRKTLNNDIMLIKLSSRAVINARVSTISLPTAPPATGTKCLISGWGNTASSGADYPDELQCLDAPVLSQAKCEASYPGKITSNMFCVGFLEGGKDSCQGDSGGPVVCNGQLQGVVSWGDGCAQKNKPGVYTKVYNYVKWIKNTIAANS

Sequence of Coagulation factor X (P00742 41-179 limits assumed): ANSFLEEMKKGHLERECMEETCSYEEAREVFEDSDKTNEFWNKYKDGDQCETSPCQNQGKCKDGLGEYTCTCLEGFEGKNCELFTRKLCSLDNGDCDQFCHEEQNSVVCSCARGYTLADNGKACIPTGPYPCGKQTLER
Sequence of Coagulation factor X (P00742 235-488 limits assumed): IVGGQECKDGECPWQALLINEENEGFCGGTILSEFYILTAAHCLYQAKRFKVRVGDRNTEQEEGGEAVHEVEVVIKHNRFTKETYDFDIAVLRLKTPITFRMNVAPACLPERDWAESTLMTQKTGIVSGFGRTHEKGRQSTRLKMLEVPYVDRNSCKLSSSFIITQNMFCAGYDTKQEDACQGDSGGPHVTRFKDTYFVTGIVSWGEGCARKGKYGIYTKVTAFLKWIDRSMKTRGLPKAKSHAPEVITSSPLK

Ki (Prothrombin) [µM] | Ki (Coagulation factor X) [µM] | Ki (Serine protease 1) [µM] | Compound
> 3.9 | > 1.2 | > 2.9 | O=C1CN(S(=O)(=O)c2cc3ccc(Cl)cc3s2)CCN1Cc1cc2ncccc2[nH]1 [4-(6-Chloro-benzo[b]thiophene-2-sulfonyl)-1-(1H-pyrrolo[3,2-b]pyridin-2-ylmethyl)-piperazin-2-one]
– | > 1.2 | – | O=C1CN(S(=O)(=O)c2cc3cccnc3s2)CCN1Cc1cc2cnccc2[nH]1 [1-(1H-Pyrrolo[3,2-c]pyridin-2-ylmethyl)-4-(thieno[2,3-b]pyridine-2-sulfonyl)-piperazin-2-one]
> 3.9 | > 1.2 | > 2.9 | O=C1CN(S(=O)(=O)c2cc3ccc(Cl)cc3s2)CCN1Cc1cc2c(=O)[nH]ccc2[nH]1 [2-[4-(6-Chloro-benzo[b]thiophene-2-sulfonyl)-2-oxo-piperazin-1-ylmethyl]-1,5-dihydro-pyrrolo[3,2-c]pyridin-4-one]
– | > 1.2 | – | COc1cc(C=CS(=O)(=O)N2CCN(Cc3cc4cnccc4[nH]3)C(=O)C2)sc1Cl [4-[2-(5-Chloro-4-methoxy-thiophen-2-yl)-ethenesulfonyl]-1-(1H-pyrrolo[3,2-c]pyridin-2-ylmethyl)-piperazin-2-one]
– | > 1.2 | – | O=C1CN(S(=O)(=O)c2sc3ccccc3c2Cl)CCN1Cc1cc2cnccc2[nH]1 [4-(3-Chloro-benzo[b]thiophene-2-sulfonyl)-1-(1H-pyrrolo[3,2-c]pyridin-2-ylmethyl)-piperazin-2-one]
– | > 1.2 | – | O=C1CN(S(=O)(=O)c2ccc(-c3ccc(Cl)cc3)cc2)CCN1Cc1cc2cnccc2[nH]1 [4-(4'-Chloro-biphenyl-4-sulfonyl)-1-(1H-pyrrolo[3,2-c]pyridin-2-ylmethyl)-piperazin-2-one]
– | > 1.2 | – | O=C1CN(S(=O)(=O)c2cc3ncccc3s2)CCN1Cc1cc2cnccc2[nH]1 [1-(1H-Pyrrolo[3,2-c]pyridin-2-ylmethyl)-4-(thieno[3,2-b]pyridine-2-sulfonyl)-piperazin-2-one]
> 3.9 | > 1.2 | > 2.9 | O=C1CN(S(=O)(=O)c2cc3ccc(Cl)cc3s2)CCN1Cc1nc2ccncc2[nH]1 [4-(6-Chloro-benzo[b]thiophene-2-sulfonyl)-1-(1H-imidazo[4,5-c]pyridin-2-ylmethyl)-piperazin-2-one]
